Measured values: PubChem BioAssay (NCI)
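Results reflect a 48-hour exposure of cells in 96-well plates to compound at five concentrations. Here, GI50 denotes the concentration required for 50% inhibition of growth. TGI denotes the concentration required for complete inhibition of growth.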

What was measured:
Assay in all cases: NCI-60 cell line screen, 48 h
NCI-H522 lung = tested on: NCI-H522 lung
SN12C renal = tested on: SN12C renal
U251 CNS = tested on: U251 CNS
T-47D breast = tested on: T-47D breast
BT-549 breast = tested on: BT-549 breast
MDA-MB-435 = tested on: MDA-MB-435
OVCAR-3 ovarian = tested on: OVCAR-3 ovarian
SW-620 colon = tested on: SW-620 colon
M14 melanoma = tested on: M14 melanoma
NCI/ADR-RES ovarian = tested on: NCI/ADR-RES ovarian
HOP-62 NSCLC = tested on: HOP-62 NSCLC
HCC-2998 colon = tested on: HCC-2998 colon
LOX IMVI melanoma = tested on: LOX IMVI melanoma
HCT-116 colon = tested on: HCT-116 colon
UACC-62 melanoma = tested on: UACC-62 melanoma
OVCAR-8 ovarian = tested on: OVCAR-8 ovarian
ACHN renal = tested on: ACHN renal
MALME-3M melanoma = tested on: MALME-3M melanoma
OVCAR-5 ovarian = tested on: OVCAR-5 ovarian
TK-10 renal = tested on: TK-10 renal
EKVX NSCLC = tested on: EKVX NSCLC
SF-268 CNS = tested on: SF-268 CNS
COLO 205 colon = tested on: COLO 205 colon
RXF 393 renal = tested on: RXF 393 renal
A498 renal = tested on: A498 renal
A549 NSCLC = tested on: A549 NSCLC
IGROV1 ovarian = tested on: IGROV1 ovarian
PC-3 prostate = tested on: PC-3 prostate
NCI-H226 lung = tested on: NCI-H226 lung
HT29 colon = tested on: HT29 colon
HL-60(TB) leukemia = tested on: HL-60(TB) leukemia
NCI-H460 lung = tested on: NCI-H460 lung
SNB-19 CNS = tested on: SNB-19 CNS
HCT-15 colon = tested on: HCT-15 colon
SK-MEL-5 melanoma = tested on: SK-MEL-5 melanoma
SF-539 CNS = tested on: SF-539 CNS
KM12 colon = tested on: KM12 colon
UACC-257 melanoma = tested on: UACC-257 melanoma
DU-145 prostate = tested on: DU-145 prostate
786-0 renal = tested on: 786-0 renal
SR leukemia = tested on: SR leukemia
SK-OV-3 ovarian = tested on: SK-OV-3 ovarian
CAKI-1 renal = tested on: CAKI-1 renal
MCF7 breast = tested on: MCF7 breast
K-562 leukemia = tested on: K-562 leukemia
MOLT-4 leukemia = tested on: MOLT-4 leukemia
CCRF-CEM leukemia = tested on: CCRF-CEM leukemia
OVCAR-4 ovarian = tested on: OVCAR-4 ovarian
NCI-H23 lung = tested on: NCI-H23 lung
MDA-MB-468 breast = tested on: MDA-MB-468 breast
HS 578T breast = tested on: HS 578T breast
SF-295 CNS = tested on: SF-295 CNS
HOP-92 NSCLC = tested on: HOP-92 NSCLC
SK-MEL-28 melanoma = tested on: SK-MEL-28 melanoma
RPMI-8226 leukemia = tested on: RPMI-8226 leukemia

CC[C@]12C=CCN3CC[C@@]4(c5ccc(OC)cc5N(C)[C@H]4[C@@](O)(C(=O)OC)[C@@H]1OC(=O)CCC[P+](C1CCCCC1)(C1CCCCC1)C1CCCCC1)[C@@H]32
GI50 (NCI-H522 lung): 0.688 µM
TGI (NCI-H522 lung): 4.98 µM
GI50 (SN12C renal): 2.89 µM
TGI (SN12C renal): 10.1 µM
GI50 (U251 CNS): 0.746 µM
TGI (U251 CNS): 11.8 µM
GI50 (T-47D breast): 1.32 µM
TGI (T-47D breast): 11.4 µM
GI50 (BT-549 breast): 2.44 µM
TGI (BT-549 breast): 5.82 µM
GI50 (MDA-MB-435): 1.83 µM
TGI (MDA-MB-435): 5.33 µM
GI50 (OVCAR-3 ovarian): 1.74 µM
TGI (OVCAR-3 ovarian): 9.08 µM
GI50 (SW-620 colon): 2.95 µM
TGI (SW-620 colon): 14.6 µM
GI50 (M14 melanoma): 1.92 µM
TGI (M14 melanoma): 8.29 µM
GI50 (NCI/ADR-RES ovarian): 35.6 µM
TGI (NCI/ADR-RES ovarian): > 100 µM
GI50 (HOP-62 NSCLC): 3.68 µM
TGI (HOP-62 NSCLC): 13.7 µM
GI50 (HCC-2998 colon): 1.7 µM
TGI (HCC-2998 colon): 7.68 µM
GI50 (LOX IMVI melanoma): 2.88 µM
TGI (LOX IMVI melanoma): 10.5 µM
GI50 (HCT-116 colon): 2.85 µM
TGI (HCT-116 colon): 11.4 µM
GI50 (UACC-62 melanoma): 1.41 µM
TGI (UACC-62 melanoma): 3.06 µM
GI50 (OVCAR-8 ovarian): 2.97 µM
TGI (OVCAR-8 ovarian): 11.7 µM
GI50 (ACHN renal): 15.2 µM
TGI (ACHN renal): 28.6 µM
GI50 (MALME-3M melanoma): 1.46 µM
TGI (MALME-3M melanoma): 3.26 µM
GI50 (OVCAR-5 ovarian): 3.19 µM
TGI (OVCAR-5 ovarian): 12 µM
GI50 (TK-10 renal): 2.73 µM
TGI (TK-10 renal): 12.1 µM
GI50 (EKVX NSCLC): 3.09 µM
TGI (EKVX NSCLC): 16 µM
GI50 (SF-268 CNS): 3.23 µM
TGI (SF-268 CNS): 13 µM
GI50 (COLO 205 colon): 0.43 µM
TGI (COLO 205 colon): 1.44 µM
GI50 (RXF 393 renal): 1.47 µM
TGI (RXF 393 renal): 5.04 µM
GI50 (A498 renal): 12.4 µM
TGI (A498 renal): 26.2 µM
GI50 (A549 NSCLC): 3.46 µM
TGI (A549 NSCLC): 13.7 µM
GI50 (IGROV1 ovarian): 1.39 µM
TGI (IGROV1 ovarian): 5.28 µM
GI50 (PC-3 prostate): 1.71 µM
TGI (PC-3 prostate): 11.4 µM
GI50 (NCI-H226 lung): 4.06 µM
TGI (NCI-H226 lung): 17.2 µM
GI50 (HT29 colon): 1.88 µM
TGI (HT29 colon): 4.05 µM
GI50 (HL-60(TB) leukemia): 0.322 µM
TGI (HL-60(TB) leukemia): 1.34 µM
GI50 (NCI-H460 lung): 2.77 µM
TGI (NCI-H460 lung): 11.3 µM
GI50 (SNB-19 CNS): 2.22 µM
TGI (SNB-19 CNS): 11.5 µM
GI50 (HCT-15 colon): 15.3 µM
TGI (HCT-15 colon): 29.2 µM
GI50 (SK-MEL-5 melanoma): 1.76 µM
TGI (SK-MEL-5 melanoma): 3.28 µM
GI50 (SF-539 CNS): 2.94 µM
TGI (SF-539 CNS): 10.7 µM
GI50 (KM12 colon): 1.63 µM
TGI (KM12 colon): 4.08 µM
GI50 (UACC-257 melanoma): 1.26 µM
TGI (UACC-257 melanoma): 3.34 µM
GI50 (DU-145 prostate): 3.75 µM
TGI (DU-145 prostate): 15.2 µM
GI50 (786-0 renal): 4.45 µM
TGI (786-0 renal): 16.7 µM
GI50 (SR leukemia): 1.35 µM
TGI (SR leukemia): 4.01 µM
GI50 (SK-OV-3 ovarian): 2.59 µM
TGI (SK-OV-3 ovarian): 7.57 µM
GI50 (CAKI-1 renal): 16.4 µM
TGI (CAKI-1 renal): 30.3 µM
GI50 (MCF7 breast): 1.19 µM
TGI (MCF7 breast): 7.67 µM
GI50 (K-562 leukemia): 1.32 µM
TGI (K-562 leukemia): 12.5 µM
GI50 (MOLT-4 leukemia): 2.16 µM
TGI (MOLT-4 leukemia): 6.51 µM
GI50 (CCRF-CEM leukemia): 1.69 µM
TGI (CCRF-CEM leukemia): 11.6 µM
GI50 (OVCAR-4 ovarian): 2.39 µM
TGI (OVCAR-4 ovarian): 12.4 µM
GI50 (NCI-H23 lung): 2.31 µM
TGI (NCI-H23 lung): 8.3 µM
GI50 (MDA-MB-468 breast): 0.313 µM
TGI (MDA-MB-468 breast): 1.29 µM
GI50 (HS 578T breast): 2.45 µM
TGI (HS 578T breast): 7.91 µM
GI50 (SF-295 CNS): 4.41 µM
TGI (SF-295 CNS): 16.5 µM
GI50 (HOP-92 NSCLC): 1.01 µM
TGI (HOP-92 NSCLC): 4.03 µM
GI50 (SK-MEL-28 melanoma): 1.08 µM
TGI (SK-MEL-28 melanoma): 2.76 µM
GI50 (RPMI-8226 leukemia): 0.383 µM
TGI (RPMI-8226 leukemia): 2.22 µM
